We go through one compound from ChEMBL document CHEMBL3217499, “Membrane disrupting antimicrobial peptide dendrimers with multiple amino termini” (Medchemcomm, 2012).

In brackets after ≈: the same amount, converted by molar mass. Activity calls are given as the source filed them. The calls are words filed in the database; no cut-off is given here.

For one data set, the system named is Lipid bilayer. The experiment in a line: Induction of membrane disruption in synthetic unilamellar vesicles assembled from Escherichia coli lipids at 25 ug/ml after 16 hrs by negative-stain transmission electron microscopic analysis. Type of data set: functional.
The test system of data set [1] is Escherichia coli. The data set is described as follows: Antibacterial activity against Escherichia coli DC2 by broth microdilution assay. Type of data set: functional.
In data set [2] the test system is Pseudomonas aeruginosa. The experiment in a line: Antibacterial activity against Pseudomonas aeruginosa K799/WT by broth microdilution assay. Type of data set: functional.
Data set [3] concerns Pseudomonas aeruginosa. The experiment in a line: Antibacterial activity against Pseudomonas aeruginosa 8S/H by broth microdilution assay. Type of data set: functional. (Dilution methods test growth across graded concentrations, often in twofold steps.)
In data set [4] the test system is Staphylococcus aureus. The experiment in a line: Antibacterial activity against methicillin-resistant Staphylococcus aureus 42080 by broth microdilution assay. Type of data set: functional.
Data set [5] relates to Pseudomonas aeruginosa. The data set is described as follows: Antibacterial activity against Pseudomonas aeruginosa K799/61 by broth microdilution assay. Type of data set: functional.
Data set [6] deals with Escherichia coli. The experiment in a line: Antibacterial activity against Escherichia coli DH5[alpha] after 18 to 24 hrs by broth microdilution assay. Type of data set: functional.
Data set [7] deals with Enterococcus faecium. The data set is described as follows: Antibacterial activity against Enterococcus faecium Van BE38-10 by broth microdilution assay. The class given is functional.
For data set [8], the system named is Enterococcus faecalis. The data set is described as follows: Antibacterial activity against Enterococcus faecalis ATCC 29212 by broth microdilution assay. Type of data set: functional.
Data set [9] deals with Escherichia coli. The data set is described as follows: Antibacterial activity against Escherichia coli ATCC 25922 by broth microdilution assay. The class given is functional.
Data set [10] has as its system Staphylococcus epidermidis. The data set is described as follows: Antibacterial activity against Staphylococcus epidermidis J147 by broth microdilution assay. Type of data set: functional.
The subject of data set [11] is Pseudomonas aeruginosa. The data set is described as follows: Antibacterial activity against Pseudomonas aeruginosa PAO1 HS by broth microdilution assay. The class given is functional.
For data set [12], the system named is Staphylococcus aureus. The experiment in a line: Antibacterial activity against Staphylococcus aureus ATCC 29213 by broth microdilution assay. Type of data set: functional.
In data set [13] the test system is Staphylococcus epidermidis. The experiment in a line: Antibacterial activity against Staphylococcus epidermidis ATCC 14990 by broth microdilution assay. The class given is functional.
Data set [14] deals with Pseudomonas aeruginosa. The data set is described as follows: Antibacterial activity against Pseudomonas aeruginosa ATCC 27853 by broth microdilution assay. The class given is functional.
A short description of data set [15]: Hemolytic activity in human RBC after 4 hrs. The class given is ADME, cell-based. Particulars: erythrocyte.
For data set [16], the system named is Escherichia coli. The experiment in a line: Antibacterial activity against Escherichia coli HB101 (PAT 266) by broth microdilution assay. Type of data set: functional.
Data set [17] has as its system Enterococcus faecalis. The experiment in a line: Antibacterial activity against Enterococcus faecalis Van BE80-8 by broth microdilution assay. The class given is functional.
Data set [18] relates to Staphylococcus aureus. The experiment in a line: Antibacterial activity against Staphylococcus aureus 887 by broth microdilution assay. The class given is functional.
The next data set relates to Bacillus subtilis. The experiment in a line: Antibacterial activity against Bacillus subtilis BR151 after 18 to 24 hrs by broth microdilution assay. Type of data set: functional.
In data set [19] the test system is Staphylococcus aureus. The data set is described as follows: Antibacterial activity against Staphylococcus aureus ATCC 25923 by broth microdilution assay. The class given is functional.
Data set [20] relates to Pseudomonas aeruginosa. The data set is described as follows: Antibacterial activity against Pseudomonas aeruginosa PAO1 after 18 to 24 hrs by broth microdilution assay. The class given is functional.
For data set [21], the system named is Enterococcus faecium. The experiment in a line: Antibacterial activity against Enterococcus faecium ATCC 19434 by broth microdilution assay. Type of data set: functional.

On to `CC(C)C[C@H](NC(=O)[C@H](CCCCNC(=O)[C@@H](N)CC(C)C)NC(=O)[C@@H](N)CC(C)C)C(=O)NCCCC[C@H](NC(=O)[C@H](CC(C)C)NC(=O)[C@H](CCCCNC(=O)[C@@H](N)CC(C)C)NC(=O)[C@@H](N)CC(C)C)C(=O)N[C@@H](Cc1ccccc1)C(=O)NCCCC[C@H](NC(=O)[C@H](Cc1ccccc1)NC(=O)[C@H](CCCCNC(=O)[C@H](CC(C)C)NC(=O)[C@H](CCCCNC(=O)[C@@H](N)CC(C)C)NC(=O)[C@@H](N)CC(C)C)NC(=O)[C@H](CC(C)C)NC(=O)[C@H](CCCCNC(=O)[C@@H](N)CC(C)C)NC(=O)[C@@H](N)CC(C)C)C(=O)N[C@@H](CCCCN)C(N)=O`, for which, in the data set with Lipid bilayer, the outcome was Active. In addition, the minimum inhibitory concentration (MIC) (usually the lowest concentration that inhibits growth of the organism) is over 32 µg/mL in the data set with Escherichia coli [1]; over 32 µg/mL against Pseudomonas aeruginosa [2]; over 32 µg/mL with Pseudomonas aeruginosa [3]; over 32 µg/mL against Staphylococcus aureus [4]; over 32 µg/mL in the data set on Pseudomonas aeruginosa [5]; 21 µg/mL (≈ 7.79 µM) with Escherichia coli [6]. For the same compound, the minimum inhibitory concentration (MIC) is 32 µg/mL (≈ 11.9 µM) against Enterococcus faecium [7]; over 32 µg/mL against Enterococcus faecalis [8]; over 32 µg/mL against Escherichia coli [9]; 24 µg/mL (≈ 8.91 µM) in data set [10]; over 32 µg/mL with Pseudomonas aeruginosa [11]; over 32 µg/mL against Staphylococcus aureus [12]. In addition, the MIC is 32 µg/mL (≈ 11.9 µM) in data set [13]; over 32 µg/mL against Pseudomonas aeruginosa [14]; 32 µg/mL (≈ 11.9 µM) against Escherichia coli [16]; over 32 µg/mL against Enterococcus faecalis [17]; 12 µg/mL (≈ 4.45 µM) against Staphylococcus aureus [18]; 2 µg/mL (≈ 0.742 µM) in the data set on Bacillus subtilis. Also, the results for the MIC against Staphylococcus aureus [19], against Pseudomonas aeruginosa [20] and against Enterococcus faecium [21] were 24 µg/mL (≈ 8.91 µM), over 72 µg/mL and at least 32 µg/mL, respectively. Further, in [15], the MHC turned out to be 310 µg/mL.
